{"source": "patent US11684594B2", "about": "“Antifungal prophylaxis for cornea” (PRESIDENT AND FELLOWS OF HARVARD COLLEGE, priority 2020, dated 2023)", "key": {"[1]": {"test_system": "Candida, Aspergillus, and Fusarium", "conditions": "0.01% hypochlorous acid (Avenova), cited from earlier work"}, "[2]": {"conditions": "clinical or long-term topical ocular use, cited from earlier work"}, "C. albicans (ATCC 24433)": {"test_system": "C. albicans (ATCC 24433)", "assay": "In vitro time kill test, yeast", "type": "cell-based, Candida albicans", "conditions": "for Ratio fungicidal activity/cytotoxicity: FIG. 3, # of log10 reduction / fold-change in Trypan Blue staining vs PBS (HCLE), 1 min contact, C. albicans", "description": "(§1) In Vitro Time Kill Tests. Microtiter time kill tests were carried out in vitro according to the published CLSI methods (M27-A2).^22\nThe inoculum was prepared by adjustment of the optical density at 600 nm (OD600) to 1.0 (corresponding to approximately 1×10^6 CFU/mL), and dilution by 1:10 in the final solution. To confirm the starting inoculum size, yeasts were plated […] and colonies counted after growth for 24 hrs at 37° C. The test solutions were neutralized at each time point by ten-fold dilution in Dey-Engley neutralizing broth (Sigma-Aldrich; St Louis, Mo.), and serially track diluted (PMID: 9343684) on Sabouraud dextrose agar (six serial 1:10 dilutions, 0.01 mL each) in technical triplicate. Colonies were counted and recorded following aerobic incubation for 24 hrs at 37° C.\n(§2) To investigate the fungicidal activity of various antibiotics and antimicrobials, the reduction in fungal load after short contact times (0-15 min, FIGS. 2-3), to account for the effect of rapid dilution by the tear film, as occurs in patients after topical instillation, was measured.^23 The detection limit for time kill tests was approximately 100 CFU/mL for C. albicans, and 1 CFU/mL for F. solani and A. fumigatus (corresponding to a ≥3 log difference from the starting inoculum). 20-300 cells were considered a reliable counting range per dilution, and values were averaged when more than one dilution in the same plate were within this range."}, "[3]": {"test_system": "F. solani (ATCC MYA-3636)", "assay": "In vitro time kill test, filamentous fungi", "type": "cell-based, Fusarium solani", "conditions": "for Ratio fungicidal activity/cytotoxicity: FIG. 3, # of log10 reduction / fold-change in Trypan Blue staining vs PBS (HCLE), 1 min contact, F. solani", "description": "as §1\n(§3) ii) Filamentous fungi: The antibiotic solutions, at either full or 1/10 strength, and antiseptics were inoculated with approximately 2×10^5-2×10^6 conidia/mL of F. solani or A. fumigatus in RPMI broth (buffered with MOPS at pH 7.0; Mediatech; Manassas, Va.) for 0-15 min. Conidia were collected by flooding the agar plates with 10 mL of sterile 1×PBS and 0.1% Tween® 20 (Sigma Aldrich; St Louis, Mo.). The solution was transferred to a sterile conical tube, and particles were allowed to settle for 10 min. The resulting supernatant was transferred to a new sterile conical tube and centrifuged at 3,000×g for 5 min. The supernatant was discarded, the remaining pellet was re-suspended in RPMI broth (buffered with MOPS at pH 7.0), and the OD600 was adjusted to 1.0. In the final test solutions, at each time point the inoculum was diluted 1:10 and neutralized in Dey-Engley neutralizing broth (Sigma-Aldrich; St Louis, Mo.). Neutralized cultures were then serially diluted and plated on Sabouraud dextrose agar (two serial 1:10 dilutions, 0.1 mL each) in technical duplicate. Viable conidia were counted and recorded following aerobic incubation for 48 hrs (or as soon as growth was visible) at 25-35° C.\nas §2"}, "[4]": {"test_system": "A. fumigatus (ATCC MYA-3626)", "assay": "In vitro time kill test, filamentous fungi", "type": "cell-based, Aspergillus fumigatus", "conditions": "for Ratio fungicidal activity/cytotoxicity: FIG. 3, # of log10 reduction / fold-change in Trypan Blue staining vs PBS (HCLE), 1 min contact, A. fumigatus", "description": "as §1, §3, §2"}, "[5]": {"test_system": "human corneal-limbal epithelial cells (HCLE)", "type": "cell-based", "description": "In Vitro Toxicity Tests. Trypan Blue assays for toxicity of various antimicrobial agents were conducted using human corneal cells. Telomerase-immortalized human corneal-limbal epithelial cells (HCLE) were thawed at 37° C. and quickly transferred to a sterile T75 cell culture flask. Cells were grown in keratinocyte serum-free medium (KSFM; Gibco™; Thermofisher Scientific; Waltham, Mass.) supplemented with bovine pituitary extract (25 μg/mL), epidermal growth factor (0.2 ng/mL), calcium chloride (0.4 mM CaCl2[…]2H2O; Sigma-Aldrich; St Louis, Mo.), and 1× penicillin/streptomycin, at 37° C. with 5% CO2. Once cells were confluent, they were passaged following trypsinization in 12- or 24-well plates. After incubation with Trypsin-EDTA (0.05%, Gibco™; Thermofisher Scientific; Waltham, Mass.) for 5-10 min at 37° C. with 5% CO2, the reaction was stopped with an equivalent volume of neutralizing medium (Dulbecco's Modified Eagle Medium/Nutrient Mixture F-12, DMEM/F-12, with HEPES and 10% newborn calf serum), centrifuged at 5,000×g for 5 min, and re-suspended in supplemented KSFM. Experiments were performed using cells from passages 31 to 36. Once cells reached confluency, they were gently washed twice with DMEM/F-12 (Gibco™; Thermofisher Scientific; Waltham, Mass.) and incubated with an antimicrobial agent for 1 min (n=2 wells per group). Controls included 1×PBS (diluent) and 1% TX-100 (cell permeabilizer). After exposure to various agents, the cells were washed three times with DMEM/F-12, incubated with 0.2% Trypan Blue for 5 min, and washed again three times with DMEM/F-12. The remaining media was aspirated and replaced with 1×PBS for imaging. Macro-images of the culture plate were taken with a smartphone camera (iPhone 7; Apple Inc.; Cupertino, Calif.), and 10× images were taken with an inverted microscope (Eclipse TS100; Nikon; Tokyo, Japan) attached to a digital camera (SPOT Insight Fire Wire; Diagnostic Instruments Inc.; Sterling Heights, Mich.). 3-6 images/well were obtained in clockwise direction from areas immediately adjacent to the center of the well, and without overlapping areas. Images were quantified in ImageJ Fiji software to determine the amount of cell uptake of Trypan Blue. Macros were created from the Color Threshoulder plugin (G. Landini) to batch process the images after color matching in Photoshop to reference images per treatment group. % Area of Trypan Blue staining per image was calculated as follows: (area of blue/area of all)×100%."}, "[6]": {"test_system": "Candida albicans (ATCC 24433), Fusarium solani (ATCC MYA-3636), and Aspergillus fumigatus (ATCC MYA-3626)", "assay": "In vitro antifungal testing, statements not resolved by species", "type": "cell-based", "description": "Several commonly used antibiotics were tested in vitro against Candida albicans (ATCC 24433), Fusarium solani (ATCC MYA-3636), and Aspergillus fumigatus (ATCC MYA-3626). Time kill activity and minimum inhibitory concentrations (MIC) were determined. Also the antiseptics benzalkonium chloride (BAK), povidone-iodine (PI), and ionic liquids (ILs) consisting of a 1:1 mixture of choline and undecanoic acid, were tested. Toxicity was assayed in vitro on cultures of human corneal epithelial cells, subjected to Trypan Blue staining. Adhesion and tissue invasion experiments were also carried out, with or without γ-irradiation, and by analysis with fluorescent microscopy.\nas §1"}, "[7]": {"conditions": "1:1 IL at 10 mM in 1×PBS"}}, "note": "Where two headings read alike, the source gives them in different places.", "data": [{"molecule": "OCl", "note": "[hypochlorous acid]", "values": [{"measurement": "Fungicidal activity (words)", "setting": "[1]", "result": "rapid fungicidal and sporicidal activity within one minute of exposure time"}, {"measurement": "Fungicidal activity (words)", "setting": "[1]; listed as Hypochlorous acid", "result": "highly effective against fungi"}, {"measurement": "Tolerability / ocular safety (words)", "setting": "[2]", "result": "well tolerated"}, {"measurement": "Tolerability / ocular safety (words)", "setting": "[2]; listed as Hypochlorous acid", "result": "easily tolerated"}]}, {"molecule": "Choline undecanoate (1:1) [choline-undecanoate IL]", "values": [{"measurement": "Reduction in viable C. albicans", "setting": "C. albicans (ATCC 24433); 10 mM, within 1 min", "result": "1-4 log"}, {"measurement": "Ratio fungicidal activity/cytotoxicity", "setting": "C. albicans (ATCC 24433)", "result": "> 1"}, {"measurement": "Ratio fungicidal activity/cytotoxicity", "setting": "C. albicans (ATCC 24433); listed as novel IL", "result": "highest ratios"}, {"measurement": "Reduction in viable F. solani", "setting": "[3]; 10 mM, within 1 min", "result": "1-4 log"}, {"measurement": "Reduction in viable conidia", "setting": "[3]; FIG. 2C, within 1 min of contact, Polytrim full strength, PI 0.5%, BAK 40 µg/mL, #3-IL 10 mM", "result": 2, "unit": "log10"}, {"measurement": "Ratio fungicidal activity/cytotoxicity", "setting": "[3]", "result": "> 1"}, {"measurement": "Ratio fungicidal activity/cytotoxicity", "setting": "[3]; listed as novel IL", "result": "highest ratios"}, {"measurement": "Reduction in viable A. fumigatus", "setting": "[4]; 10 mM, within 1 min", "result": "1-4 log"}, {"measurement": "Ratio fungicidal activity/cytotoxicity", "setting": "[4]", "result": "> 1"}, {"measurement": "Ratio fungicidal activity/cytotoxicity", "setting": "[4]; listed as novel IL", "result": "highest ratios"}, {"measurement": "Trypan Blue staining (% stained area per image) compared to control treatment TX-100 (1%)", "setting": "[5]; FIG. 2A, confluent HCLE monolayers, 1 min of contact, BAK 40 µg/mL, PI 0.5%, #3-IL 10 mM", "result": "significantly lower amount of staining"}, {"measurement": "Cytotoxicity / toxicity", "setting": "[5]; HCLE cells, post-exposure Trypan blue staining", "result": "virtually non-toxic"}, {"measurement": "Efficacy/toxicity ratio, overall rank", "setting": "[6]; fungicidal activity vs HCLE cytotoxicity, species not resolved", "result": "performed even better"}, {"measurement": "Antifungal / fungicidal activity in vitro", "setting": "[6]; species not resolved, agents at eye-drop or stated concentration", "result": "effective"}, {"measurement": "Contact time within which in vitro fungicidal activity was exhibited", "setting": "[6]; species-, contact time- and concentration-dependent", "result": "1 to 15", "unit": "min"}, {"measurement": "Light tolerance", "setting": "[7]", "result": "tolerant of light exposure"}, {"measurement": "pH", "setting": "[7]", "result": "7.2±0.2"}, {"measurement": "Stability", "setting": "[7]; room temperature", "result": "stable at room temperature for months"}]}]}
